1 molecule from article PMC8877008, “Synthesis and Structure–Activity Relationship Studies of Benzimidazole-4,7-dione-Based P2X3 Receptor Antagonists as Novel Anti-Nociceptive Agents” (Molecules, 2022) can be followed below.

Each structure is given as a SMILES string.

In data set [1] the target is T1, hP2X2/3R (Homo sapiens, UniProt P56373+Q9UBL9).
T1 construct: expressed in transfected cells
T1 sequence (P56373 1-397): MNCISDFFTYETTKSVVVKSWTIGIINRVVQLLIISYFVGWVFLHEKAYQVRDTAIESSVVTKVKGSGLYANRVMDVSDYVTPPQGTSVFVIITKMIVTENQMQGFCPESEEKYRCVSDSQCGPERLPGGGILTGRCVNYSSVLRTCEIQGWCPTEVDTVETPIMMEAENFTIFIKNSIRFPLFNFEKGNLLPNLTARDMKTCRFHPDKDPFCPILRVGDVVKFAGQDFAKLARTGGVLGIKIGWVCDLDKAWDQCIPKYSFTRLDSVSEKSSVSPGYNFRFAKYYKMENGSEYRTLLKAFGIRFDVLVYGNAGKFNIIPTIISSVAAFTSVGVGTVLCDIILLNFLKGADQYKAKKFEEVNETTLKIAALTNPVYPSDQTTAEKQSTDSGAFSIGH
T1 sequence (Q9UBL9 1-471): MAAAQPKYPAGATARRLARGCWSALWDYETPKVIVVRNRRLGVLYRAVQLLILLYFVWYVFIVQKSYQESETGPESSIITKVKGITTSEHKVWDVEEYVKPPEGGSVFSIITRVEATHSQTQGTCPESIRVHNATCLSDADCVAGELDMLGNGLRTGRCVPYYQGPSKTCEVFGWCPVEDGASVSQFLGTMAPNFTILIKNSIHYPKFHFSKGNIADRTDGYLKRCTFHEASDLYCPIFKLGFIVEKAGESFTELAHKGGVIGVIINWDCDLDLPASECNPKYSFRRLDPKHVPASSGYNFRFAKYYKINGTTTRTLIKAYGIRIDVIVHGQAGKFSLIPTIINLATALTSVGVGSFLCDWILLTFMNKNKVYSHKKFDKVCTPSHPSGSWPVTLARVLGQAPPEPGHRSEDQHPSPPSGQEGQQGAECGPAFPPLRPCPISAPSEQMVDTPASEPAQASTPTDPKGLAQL
As to the kind of experiment: Calcium influx (Fluo-4) evoked by α,β-meATP in HEK293 cells stably expressing hP2X2/3R. The class given is cell-based. The following applies: antagonistic activity; HEK293 cells expressing hP2X2/3R; agonist at EC70. On the procedure: For the evaluation of P2XR activities, a cell-based assay system was employed to measure the level of fluorescence emission, based on Fluo-4 dye, during Ca^2+ influx evoked by αβmeATP in HEK293 cells stably expressing hP2X2/3R and hP2X3R. The library containing 8364 representative compounds for the screening of antagonistic activity was provided by the Korea Chemical Bank. The antagonistic activities were evaluated in the presence of P2X3R agonist of the concentration for EC70 value (200–250 nM for hP2X3R and 1–4 μM for hP2X2/3R highly expressed cell lines), and AF353 was used as the positive control antagonist for comparison. […]
3.4. Cell-Based Assay: Measurement of Calcium Influx by Fluorescence-Based Fluo-4 Dye Uptake in HEK293 Cells Expressing hP2X2/3 and hP2X3 Receptors
Human P2X3-expressing HEK293 cells were grown in DMEM supplemented with 10% fetal bovine serum and 1% antibiotic–antimycotic as a monolayer culture at 37 °C in a humidified atmosphere of 5% CO2. […] Flexstation 3 and its software provided by Molecular Devices was used for the measurement of fluorescence in real time of treatments using prepared α,β-meATP (M6517, Sigma Aldrich) solution to evoke calcium influx and increased cell membrane potential. […]

Data set [2] is described as follows: Metabolic stability in microsomal fraction, rat. The data set is classed as in vitro ADME. The following applies: rat microsomal fraction, read-out: Metabolic Stability (Microsomal Fr.) % remaining after 30 min.
The nature of data set [3]: In vivo pharmacokinetic study in rats. The following applies: male, SD, plasma, 10 mg/kg; oral administration, 10 mpk, rat. On the procedure:
Experiments were used to determine any changes during in vivo pharmacokinetics, such as absorption, distribution, metabolism, and excretion of compounds, which are correlated with drug efficacy and toxicity. Pharmacokinetic experiments using rats were mainly conducted using 8-week-old SD male rats (Osan, Kyungki-Do, Korea). A tube was inserted into the femoral vein, the intravenous administration group was administered through the tube, and the oral administration group was administered the drug orally using oral gavage (1–2 mL/kg). Blood collection for the drug was performed at fixed times ([…], 0.25, 0.5, 1, 2, 4, 6, 8, and 24 h) from the time when the tube was inserted into the femoral vein. Blood was centrifuged to separate plasma, and plasma and urine samples were pretreated (minimum 0.5 ng/mL and maximum 8000 ng/mL) using an appropriate organic solvent. For sample preparation, the working solution of rat blank plasma was spiked, followed by preparation of plasma samples with solid phase extraction. Next, the concentration of 100 μL eluent was analyzed by LC–MS/MS (Mass spectrometry 4000 Qtrap with HPLC, Agilent 1200, Santa Clara, CA, USA). The noncompartmental pharmacokinetic parameters were calculated from the blood concentration–time data of the drug analyzed using the noncompartmental analysis model of WinNonlin (Pharsight ver 6.4, Princeton, NJ, USA).

A short description of data set [4]: Solubility in DMSO/water. The following applies: DMSO in water. The data set is classed as physicochemical.

Regarding `O=C1C(NC2CCN(C(=O)c3ccc(F)c(F)c3)CC2)=C(Cl)C(=O)c2[nH]c(C(F)(F)F)nc21` [14h, 6-Chloro-5-((1-(3,4-difluorobenzoyl)piperidin-4-yl)amino)-2-(trifluoromethyl)-1H-benzo[d]imidazole-4,7-dione], the IC50 in data set [1] was determined as 9.1 µM. Also, the share remaining at 0.5 h in data set [2] is over 99%. Also, in data set [3], the area under the curve AUC(0-inf) is 250 ng·h/mL, the highest level (Cmax) was 40 ng/mL, the Tmax was found to be 0.33 h and the half-life is 7.58 h. Further, the Solubility result in data set [4] is recorded as “soluble in 30% DMSO in water”.
